Measured values reported in ChEMBL document CHEMBL1126346, “C-linked pyrazole biaryl tetrazoles as antagonists of angiotensin II” (1992).
The source made the active and inactive calls. The rule behind the calls is not given here.

How the values were obtained:
[1] = biological target: T1, Type-1 angiotensin II receptor (Oryctolagus cuniculus) (UniProt P34976); experiment: In vitro inhibition of ATII induced contractions of the isolated rabbit aorta.
T1 sequence (whole entry): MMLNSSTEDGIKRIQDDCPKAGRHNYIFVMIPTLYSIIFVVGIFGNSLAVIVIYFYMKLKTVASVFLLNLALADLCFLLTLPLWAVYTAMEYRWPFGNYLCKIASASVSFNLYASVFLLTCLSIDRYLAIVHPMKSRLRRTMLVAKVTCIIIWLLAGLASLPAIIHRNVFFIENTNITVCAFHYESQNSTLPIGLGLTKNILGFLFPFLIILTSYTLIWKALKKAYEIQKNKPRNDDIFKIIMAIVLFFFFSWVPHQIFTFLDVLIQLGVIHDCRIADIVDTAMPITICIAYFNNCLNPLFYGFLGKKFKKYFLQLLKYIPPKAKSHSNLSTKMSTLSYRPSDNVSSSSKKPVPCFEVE

Rattus norvegicus [2] = experiment: Effect on diastolic blood pressure of hypertensive rats 5 hours following 1 mg/kg p.o. administration.; format: functional, Artery; conditions: route oral
Rattus norvegicus [3] = experiment: Effect on diastolic blood pressure of hypertensive rats 7 hours following 1 mg/kg p.o. administration.; format: functional, Artery; conditions: route oral
Rattus norvegicus [4] = experiment: Effect on diastolic blood pressure of hypertensive rats immediately following 1 mg/kg p.o. administration.; format: functional, Artery; conditions: route oral
Rattus norvegicus [5] = experiment: Effect on diastolic blood pressure of hypertensive rats 3 hours following 1 mg/kg p.o. administration.; format: functional, Artery; conditions: route oral
Rattus norvegicus [6] = experiment: Effect on diastolic blood pressure of hypertensive rats 24 hours following 1 mg/kg p.o. administration.; format: functional, Artery; conditions: route oral
Rattus norvegicus [7] = experiment: Effect on diastolic blood pressure of hypertensive rats 1 hour following 1 mg/kg p.o. administration.; format: functional, Artery; conditions: route oral
Rattus norvegicus [8] = experiment: Effect on diastolic blood pressure of hypertensive rats 48 hours following 1 mg/kg p.o. administration.; format: functional, Artery; conditions: route oral
Rattus norvegicus [9] = species: Rattus norvegicus; experiment: Effect on diastolic blood pressure of hypertensive rats; Inactive; format: functional, organism-based; conditions: Artery

Compound | pKB [1] | other results
CCCCc1nn(CC)c(C(=O)O)c1Cc1ccc(-c2ccccc2NS(=O)(=O)C(F)(F)F)cc1 | 8 | 
CCCCc1c(Cc2ccc(-c3ccccc3-c3nn[nH]n3)cc2)c(COC)nn1CC(F)(F)F | 7 | 
CCCCc1c(Cc2ccc(-c3ccccc3-c3nn[nH]n3)cc2)c(C(=O)O)nn1C(C)C | 8 | 
CCCCc1nn(CC2CC2)c(C(=O)O)c1Cc1ccc(-c2ccccc2-c2nn[nH]n2)cc1 | 10.5 | Blood pressure (Rattus norvegicus [2]): 95 mmHg; Blood pressure (Rattus norvegicus [3]): 95 mmHg; Blood pressure (Rattus norvegicus [4]): 150 mmHg; Blood pressure (Rattus norvegicus [5]): 115 mmHg; Blood pressure (Rattus norvegicus [6]): 97 mmHg; Blood pressure (Rattus norvegicus [7]): 145 mmHg; Blood pressure (Rattus norvegicus [8]): 130 mmHg
CCCCc1c(Cc2ccc(-c3ccccc3-c3nn[nH]n3)cc2)c(C(=O)O)nn1CC(F)(F)F | 7.7 | 
CCCCc1c(Cc2ccc(-c3ccccc3-c3nn[nH]n3)cc2)c(C(=O)O)nn1CCCC | 8 | 
CCCCc1nn(CC(F)(F)F)c(C(=O)O)c1Cc1ccc(-c2ccccc2-c2nn[nH]n2)cc1 | 9.8 | 
CCCCc1n[nH]c(C(=O)O)c1Cc1ccc(-c2ccccc2-c2nn[nH]n2)cc1 | 8.8 | 
CCCCc1nn(C2CCC2)c(C(=O)O)c1Cc1ccc(-c2ccccc2-c2nn[nH]n2)cc1 | 10.9 | Blood pressure (Rattus norvegicus [9]): inactive
CCCCc1nn(CC)c(C(=O)O)c1Cc1ccc(-c2ccccc2C(=O)O)cc1 | 8 | 
CCCCc1nn(C(C)C)c(C(=O)O)c1Cc1ccc(-c2ccccc2-c2nn[nH]n2)cc1 | 10 | 

Continued, in another order:

pKB [1] | Compound | other results
8 | CCCCc1nn(CC)c(C(=O)OCC)c1Cc1ccc(-c2ccccc2-c2nn[nH]n2)cc1 | 
10 | CCCCc1nn(CCCC)c(C(=O)O)c1Cc1ccc(-c2ccccc2-c2nn[nH]n2)cc1 | 
8 | CCCCc1nn(CC)c(CO)c1Cc1ccc(-c2ccccc2-c2nn[nH]n2)cc1 | 
10.6 | CCCCc1nn(CC(C)(C)C)c(C(=O)O)c1Cc1ccc(-c2ccccc2-c2nn[nH]n2)cc1 | 
10.5 | CCCCc1nn(CCC)c(C(=O)O)c1Cc1ccc(-c2ccccc2-c2nn[nH]n2)cc1 | 
7 | CCCCc1nn(CC(F)(F)F)c(COC)c1Cc1ccc(-c2ccccc2-c2nn[nH]n2)cc1 | 
11 | CCCCc1nn(CC(C)C)c(C(=O)O)c1Cc1ccc(-c2ccccc2-c2nn[nH]n2)cc1 | 
9.8 | CCCCc1nn(CC)c(C(=O)O)c1Cc1ccc(-c2ccccc2-c2nn[nH]n2)cc1 | 
7.5 | CCCCc1nn(CC)c(C(=O)NC)c1Cc1ccc(-c2ccccc2-c2nn[nH]n2)cc1 | 
9.8 | CCCCc1nn(C)c(C(=O)O)c1Cc1ccc(-c2ccccc2-c2nn[nH]n2)cc1 | 
